Measurements from patent publication US9216956B2, “Deuterium-enriched 4-hydroxy-5-methoxy-N,1-dimethyl-2-oxo-N-[(4-trifluoro-methyl)phenyl]-1,2-dihydroquinoline-3-carboxamide” (ACTIVE BIOTECH AB, priority 2011, dated 2015).
≈ marks a conversion by molar mass, not a printed value. Where “and” joins values, the source holds several entries; their conditions need not be identical. Equal values may be shown once. One block for each molecule: values may come before it.

Assays:
Water solubility = assay type: physicochemical; conditions: for solubility: water, pH 7, aqueous buffer
Description: The water solubility of ABR-215050 and of its metabolites also was investigated. It is a well-known fact that metabolism in general aims to transform compounds to more water soluble entities (10), which mostly decreases toxicity but also facilitates renal elimination. […]

[1] = system: AhR (Aryl hydrocarbon Receptor) mediated induction of CYP1A1; assay: TV-cell assay: luciferase gene reporter assay for AhR mediated induction of CYP1A1 in TV101L (HepG2) cells; assay type: cell-based, human; conditions: TV-cell assay
Protocol: (§1) ABR-215050 was tested with respect to its CYP1A inducing capability in vitro in a TV-cell assay. This assay is a luciferase gene reporter assay developed for the measurement of AhR (Aryl hydrocarbon Receptor) mediated induction of CYP1A. Human CYP1A promoters and 5′-flanking sequences were cloned into firefly luciferase expression vectors and stably integrated into the human hepatoma cell line, HepG2 (9). The isolated cell line was renamed TV101L.
(§2) The mechanism for transcription of CYP1A1 involves the binding of the inducer to the Ah receptor followed by a translocation of the ligand-Ah-receptor complex to the nucleus, where it binds to specific enhancer sequences in the 5′-flanking region of the CYP1A1 gene. These sequences are referred to as xenobiotic responsive elements (XREs).
(§3) A luciferase gene reporter assay was used for the measurement of AhR mediated induction of CYP1A1. Human CYP1A1 promoters and 5′-flanking sequences were cloned into firefly luciferase expression vectors and stably integrated into the human hepatoma cell line, HepG2 (8). The isolated cell line was renamed TV101L.
(§4) The cells were seeded in 96 well tissue culture plates 24-48 hours prior to treatment with the test compound. After the addition of ABR-215050 at a concentration of 1, 10 and 100 μM, the cells were further incubated for 12-24 hours. The cells were harvested by the addition of lysis buffer followed by a freezing/thawing cycle. An enzymatic assay was used for the determination of luciferase activity.
(§5) The same assay as used for ABR-215050 was used. The concentrations of ABR-215691 that were used and the results obtained, expressed as fold induction of luciferase expression, are shown in Table 4 and in FIG. 1.

[2] = system: CYP1A1 (AhR mediated induction); assay: as above; assay type: cell-based, human; conditions: human, TV101L cells, read-out: Fold induction of luciferase expression
Protocol: as §1, §2, §3, §4, §5

CYP1A1 = assay: In vivo CYP1A1 induction in rat, EROD activity of liver microsomes
Protocol: (§6) The in vivo induction of CYP1A1 and CYP1A2 after repeated administration of ABR-215050 and of ABR-215050-dx, respectively, was studied in rat.
(§7) Test preparations B and C and blank preparation A were made as follows: For preparation B, ABR-215050 was dissolved in NaOH and sterile water at a concentration of 0.5 mg/mL. The pH of the solution was adjusted to pH 7.4-8.5. Preparation C was made in the same way, using ABR-215050-dx. Preparation A was a blank containing only water. The preparations were stored in a refrigerator for a maximum of one week before use.
(§8) On arrival at the laboratory, the test animals were 9 weeks old Sprague Dawley male rats having a body weight of 250 g. They were divided into 3 groups and were allowed to acclimatize for at least 7 days before the test. During the whole acclimatization and test period, the animals received water and feed (Labfor R70, form Kimstad, Sweden) ad libitum, and were kept under a 12 hours dark/12 hours light cycle, at a temperature of 20±2° C. and a relative humidity of 50±15%.
(§9) Before administration of any test preparation, the body weight of each animal was measured and the individual dose to be administered to an animal was determined based on the weight of the animal. Administration was performed perorally during 4 days, cf.
(§10) At 24 h after administration of the final dose, the animals were weighed and from each animal a final blood sample was withdrawn for a pharmacokinetic analysis. The animals then were euthanized and from each one the liver was withdrawn, weighed, and immediately frozen in crushed dry ice. The livers then were stored at −70° C. until preparation of microsomes.
(§11) Microsomes were prepared according to the method M-0287 “Preparation of subcellular fractions from animal tissues” and then kept at −70° C. until analysis.
(§12) The total protein concentration of the microsomal fraction was determined according to the method M-0289 “Determination of Protein according to Hartree”.

[3] = In vivo pharmacokinetics in rat: plasma levels of parents and amide-N demethyl metabolite after 1:1 mixture; conditions: plasma, oral, peroral 2.5 mg/kg of each compound (1:1 mixture), read-out: Plasma level
Description: Therefore, the pharmacokinetic characteristics of the amide-N methyl deuterated ABR-215050 (herein below referred to as ABR-215050-dx), wherein the amide-N methyl moiety was tri-deuterated, compared to the non-deuterated parent compound were studied in rat. […] In other words: relative to ABR-215050, the in vivo formation of ABR-215691 was reduced to only 25% when ABR-215050-dx was used.
A deuterated (also referred to as deuterium-enriched) ABR-215050 was synthesized, wherein the amide-N methyl moiety was trideuterated (ABR-215050-dx). This deuterated compound was diluted with non-deuterated ABR-215050 to a molar ratio of 1:1. The 1:1 equivalent molar mixture was administrated to rats in an in vivo experiment. Because of additional 13-carbon labeling in the quinoline scaffold, the formed amide-N demethyl metabolites could be measured selectively by means of HPLC-MS (High performance Liquid Chromatography with Mass Spectrometric detection). In Table 5, the plasma levels of ABR-215050-dx and ABR-215050 (in nM) measured in 4 different rats are shown, as well as the ratio of these two compounds.

CYP1A2 = assay: In vivo CYP1A2 induction in rat, MROD activity of liver microsomes
Protocol: as §6, §7, §8, §9, §10, §11, §12

[4] = phase II, cited from earlier work
[5] = cited from earlier work
[6] = group mean, 1 mg/kg perorally days 1-4
[7] = individual rat, 1 mg/kg perorally days 1-4, liver microsomes 24 h after final dose, 1 mg/kg
[8] = individual rat, versus water group

water solubility (in words) (Water solubility): extremely low water solubility | solubility (Water solubility): < 0.01 µg/mL | CYP1A induction (in words) [1]: substantial CYP1A inducing capacity | fold induction at 0.01 µM ([2]; 0.01 μM): 15.1 | fold induction at 0.1 µM ([2]; 0.1 μM): 14.9 | fold induction at 1 µM ([2]; 12-24 hours): 21.3
SMILES: COc1cccc2c1c(O)c(C(=O)Nc1ccc(C(F)(F)F)cc1)c(=O)n2C [ABR-215691]

SMILES: COc1cccc2c1c(O)c(C(=O)N(C)c1ccc(C(F)(F)F)cc1)c(=O)n2C [ABR-215050, 4-hydroxy-5-methoxy-N,1-dimethyl-2-oxo-N-[(4-trifluoromethyl)phenyl]-1,2-dihydroquinoline-3-carboxamide, reference compound]
CYP1A1 activity (EROD), Mean (CYP1A1; [6]): 1891 pmol/mg prot/min | mean fold induction of CYP1A1 (CYP1A1; group mean, versus water group): 42 | CYP1A1 activity (EROD) (CYP1A1; [7]): 1342 pmol/mg prot/min and 2440 pmol/mg prot/min | CYP1A1 Fold induction (CYP1A1; [8]): 30 and 54 | concentration at 1 h ([3]; rat No 1, 1 h): 13.8 µM | concentration at 2 h ([3]; rat No 2, 2 h): 13.9 µM | concentration at 3 h ([3]; rat No 3, 3 h): 7.38 µM | concentration at 4 h ([3]; rat No 4, 4 h): 17.8 µM | CYP1A2 activity (MROD), Mean (CYP1A2; [6]): 334 pmol/mg prot/min | mean fold induction of CYP1A2 (CYP1A2; group mean, versus water group): 17 | CYP1A2 activity (MROD) (CYP1A2; [7]): 311 pmol/mg prot/min and 357 pmol/mg prot/min | CYP1A2 Fold induction (CYP1A2; [8]): 16 and 18 | tolerability ([4]; patients): generally well tolerated | median progression free survival ([4]; patients, placebo 3.2 months (p=0.0009)): 7.6 months | fraction of patients with disease progression during the six month period ([4]; placebo 66% (p<0.0001)): 31% | steady state plasma levels ([5]; 1-10 mg/kg/day via drinking water): 0.4 to 1 µM | plasma half-life ([5]; in vivo): 3.4 h | solubility (Water solubility): 500 µg/mL (≈ 1230 µM) | CYP1A induction (in words) [1]: did not induce CYP1A | fold induction at 1 µM ([2]; 12-24 hours): 5.2 | fold induction at 10 µM ([2]; 10 μM, 12-24 hours): 7.3 | fold induction at 100 µM ([2]; 100 μM, 12-24 hours): 11.8
